Broadly, the Ki is the equilibrium dissociation constant of an inhibitor or competing ligand from its target.

Chain of purified PARP protein (P09874 whole entry): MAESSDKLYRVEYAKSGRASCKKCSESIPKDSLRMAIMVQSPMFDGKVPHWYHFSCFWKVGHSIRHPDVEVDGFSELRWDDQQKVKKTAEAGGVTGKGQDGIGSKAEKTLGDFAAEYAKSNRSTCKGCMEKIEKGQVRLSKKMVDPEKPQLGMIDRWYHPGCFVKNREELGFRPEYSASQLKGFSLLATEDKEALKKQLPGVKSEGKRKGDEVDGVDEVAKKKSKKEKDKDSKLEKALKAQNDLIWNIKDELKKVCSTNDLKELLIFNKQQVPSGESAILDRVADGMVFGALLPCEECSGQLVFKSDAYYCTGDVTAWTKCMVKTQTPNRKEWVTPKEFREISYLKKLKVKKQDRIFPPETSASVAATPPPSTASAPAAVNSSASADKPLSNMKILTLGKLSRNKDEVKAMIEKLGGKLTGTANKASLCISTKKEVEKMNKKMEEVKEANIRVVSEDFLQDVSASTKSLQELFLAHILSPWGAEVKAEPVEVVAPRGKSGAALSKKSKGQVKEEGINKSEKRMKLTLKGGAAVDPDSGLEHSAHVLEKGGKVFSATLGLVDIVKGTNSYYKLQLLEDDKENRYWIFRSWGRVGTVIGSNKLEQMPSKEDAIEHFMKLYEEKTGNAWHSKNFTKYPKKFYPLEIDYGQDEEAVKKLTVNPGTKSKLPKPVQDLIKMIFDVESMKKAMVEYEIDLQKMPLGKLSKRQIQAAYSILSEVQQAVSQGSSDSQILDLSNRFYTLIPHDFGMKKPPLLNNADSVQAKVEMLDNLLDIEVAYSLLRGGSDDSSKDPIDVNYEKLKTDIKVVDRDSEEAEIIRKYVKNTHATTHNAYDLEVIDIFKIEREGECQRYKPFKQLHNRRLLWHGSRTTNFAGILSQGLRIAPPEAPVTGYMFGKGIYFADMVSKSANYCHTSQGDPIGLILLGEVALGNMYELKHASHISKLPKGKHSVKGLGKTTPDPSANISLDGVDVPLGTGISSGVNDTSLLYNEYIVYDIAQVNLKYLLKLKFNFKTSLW

This assay addresses purified PARP protein (Homo sapiens, UniProt P09874). Briefly: PARP Enzyme Inhibition Assay. The format is biochemical. As to conditions: [32P]NAD+ incorporation, 500 μM NAD+, 25° C.; competitive inhibition fit; read-out: Inhibition Constant Ki. The protocol: The PARP enzyme-inhibiting activities of test compounds were assayed as described by Simonin et al. (J. Biol. Chem. (1993), 268:8529-8535) and Marsischky et al. (J. Biol. Chem. (1995), 270:3247-3254) with minor modifications as follows. Samples (50 μL) containing 20 nM purified PARP protein, 10 μg/mL DNAse I-activated calf thymus DNA (sigma), 500 μM NAD^+, 0.5 μCi [^32P]NAD^+, 2% DMSO, and various concentrations of test compounds were incubated in sample buffer (50 mM Tris pH 8.0, 10 mM MgCl2, 1 mM tris(carboxyethyl)phosphine HCl) at 25° C. for 5 minutes. Under these conditions, the reaction rate was linear for times up to 10 minutes. The reaction was stopped by the addition of an equal volume of ice-cold 40% trichloroacetic acid to the samples, which were then incubated on ice for 15 minutes. The samples were then transferred to a Bio-Dot microfiltration apparatus (BioRad), filtered through Whatman GF/C glass-fiber filter paper, washed 3 times with 150 μL of wash buffer (5% trichloroacetic acid, 1% inorganic pyrophosphate), and dried. [^32P]ADP-Ribose incorporation into the acid-insoluble material was quantitated using a PhosphorImager (Molecular Dynamics) and ImageQuant software. Inhibition constants (Ki) were calculated by non-linear regression analyses using the velocity equation for competitive inhibition (Segel, Enzyme Kinetics: Behavior and Analysis of Rapid Equilibrium and Steady-State Enzyme Systems, John Wiley & Sons, Inc., New York (1975), 100-125). In the case of tight-binding inhibitors, 5 nM enzyme was used and the reaction was incubated at 25° C. for 25 minutes. Ki values for tight-binding inhibitors were calculated using the equation described by Sculley et al. (Biochim. Biophys. Acta (11986), 874:44-53).
Take `CNCCN(C)Cc1nc2c(C(N)=O)cccc2[nH]1` [Compound 23, 2-{[Methyl-(2-methylamino-ethyl)-amino]-methyl}-1H-benzimidazole-4-carboxylic Acid Amide]: the Ki was 14 nM.

On to `NC(=O)Nc1ccc(S(=O)(=O)Cc2nc3c(C(N)=O)cccc3[nH]2)cc1` [Compound 39, 2-(4-Ureido-benzenesulfonylmethyl)-1H-benzoimidazole-4-carboxylic Acid Amide], for which the Ki amounted to 29.5 ± 2.5 nM.

Consider `CN(Cc1nc2c(C(N)=O)cccc2[nH]1)Cc1ccccc1O` [Compound 15], for which the Ki is 45 ± 3 nM.

In the case of `CCC(=O)Nc1ccc(SCc2nc3c(C(N)=O)cccc3[nH]2)cc1` [Compound 24, 2-(4-Propionylamino-phenylsulfanylmethyl)-1H-benzimidazole-4-carboxylic Acid Amide], the Ki turned out to be 36 ± 2 nM.

For `NC(=O)c1cccc2[nH]c(CSc3ccc([N+](=O)[O-])cc3)nc12` [Compound 3, 2-(4-Nitro-phenylsulfanylmethyl)-1H-benzimidazole-4-carboxylic Acid Amide], the Ki is 8 nM.

For the molecule `CSc1nc2c(C(N)=O)cccc2[nH]1` [Compound 52, 2-Methylsulfanyl-3H-benzoimidazolc-4-carboxylic Acid Amide], the Ki is 27 ± 4 nM.

Consider `NC(=O)c1cccc2[nH]c(CSCCN3CCc4ccccc4C3)nc12` [Compound 46, 2-[2-(3,4-Dihydro-1H-isoquinolin-2-yl)-ethylsulfanylmethyl]-1H-benzoimidazole-4-carboxylic Acid Amide], for which the inhibition constant Ki is 33 ± 3 nM.

Consider `COC(=O)Nc1ccc(SCc2nc3c(C(N)=O)cccc3[nH]2)cc1` [Compound 26], for which the inhibition constant Ki amounted to 38 ± 1 nM.

As to `NC(=O)c1cccc2[nH]c(CNCCCN3CCCC3)nc12` [Compound 16, 2-[(3-Pyrrolidin-1-yl-propylamino)-methyl]-1H-benzimidazole-4-carboxylic Acid Amide], the Ki was determined as 15 ± 3 nM.

Take `NC(=O)c1cccc2[nH]c(CSc3ccc(O)cc3)nc12` [Compound 4, 2-(4-Hydroxy-phenylsulfanylmethyl)-1H-benzimidazole-4-carboxylic Acid Amide]: the Ki is 13 nM.

`NC(=O)c1cccc2[nH]c(NCc3ccccc3)nc12` [Compound 58, 2-Benzylamino-1H-benzoimidazole-4-carboxylic Acid Amide]: the Ki came out at 66 ± 8 nM.

For the molecule `NC(=O)c1cccc2[nH]c(N)nc12` [Compound 56, 2-Amino-1H-benzoimidazole-4-carboxylic Acid Amide], the Ki turned out to be 319 ± 36 nM.

Turning to `NC(=O)c1cccc2[nH]c(NCCc3cnc[nH]3)nc12` [Compound 61, 2-[2-(3H-Imidazol-4-yl)-ethylamino]-1H-benzoimidazole-4-carboxylic Acid Amide], the Ki came to 12 ± 1 nM.

As for `NC(=O)c1cccc2[nH]c(CSCCN3CCOCC3)nc12` [Compound 45, 2-(2-Morpholin-4-yl-ethylsulfanylmethyl)-1H-benzimidazole-4-carboxylic Acid Amide], the Ki was 48 ± 1 nM.

With `CN(C)c1ccc(SCc2nc3c(C(N)=O)cccc3[nH]2)cc1` [Compound 12, 2-(4-Dimethylamino-phenylsulfanylmethyl)-1H-benzimidazole-4-carboxylic Acid Amide], the Ki was determined as 91 ± 3 nM.

On to `CS(=O)(=O)c1ccc(S(=O)(=O)Cc2nc3c(C(N)=O)cccc3[nH]2)cc1` [Compound 35, 2-(4-Methanesulfonyl-benzenesulfonylmethyl)-1H-benzimidazole-4-carboxylic Acid Amide], for which the Ki was found to be 5 ± 1 nM.

As to `NC(=O)c1cccc2[nH]c(CSc3ccc(C(F)(F)F)cc3)nc12` [Compound 13, 2-(4-Trifluoromethyl-phenylsulfanylmethyl)-1H-benzimidazole-4-carboxylic Acid Amide], the Ki was determined as 39 ± 5 nM.

For the molecule `CNc1nc2c(C(N)=O)cccc2[nH]1` [Compound 55, 2-Methylamino-1H-benzoimidazole-4-carboxylic Acid Amide], the Ki came out at 85 ± 8 nM.

In the case of `NC(=O)c1cccc2[nH]c(CSc3ccc(N)cc3)nc12` [Compound 10, 2-(4-Amino-phenylsulfanylmethyl)-1H-benzimidazole-4-carboxylic Acid Amide], the Ki is 17 ± 1 nM.

For `NC(=O)c1cccc2[nH]c(NCCc3cccs3)nc12` [Compound 60, 2-(2-Thiophen-2-yl-ethylamino)-1H-benzoimidazole-4-carboxylic Acid Amide], the Ki is 81 ± 10 nM.

As to `CN(Cc1nc2c(C(N)=O)cccc2[nH]1)c1ccccc1` [Compound 20, 2-[(Methyl-phenyl-amino)-methyl]-1H-benzimidazole-4-carboxylic Acid Amide], the Ki worked out at 14 ± 3 nM.

On to `CC(=O)Nc1nnc(SCc2nc3c(C(N)=O)cccc3[nH]2)s1` [Compound 5, 2-(5-Acetylamino-[1,3,4]thiadiazol-2-ylsulfanylmethyl)-1H-benzimidazole-4-carboxylic Acid Amide], for which the Ki worked out at 11 ± 1 nM.

With `CCN(CC)CCNc1nc2c(C(N)=O)cccc2[nH]1` [Compound 59, 2-(2-Diethylamino-ethylamino)-1H-benzoimidazole-4-carboxylic Acid Amide], the Ki amounted to 23 ± 4 nM.

On to `CN(CCc1ccccc1)c1nc2c(C(N)=O)cccc2[nH]1` [Compound 54, 2-(Methyl-phenethyl-amino)-1H-benzoimidazole-4-carboxylic Acid Amide], for which the inhibition constant Ki worked out at 35 ± 6 nM.

As for `CCCCCCCSCc1nc2c(C(N)=O)cccc2[nH]1` [Compound 11, 2-Heptylsulfanylmethyl-1H-benzimidazole-4-carboxylic Acid Amide], the Ki was 33 ± 6 nM.

Take `CN(C)c1nc2c(C(N)=O)cccc2[nH]1` [Compound 57, 2-Dimethylamino-1H-benzoimidazole-4-carboxylic Acid Amide]: the Ki was 44 ± 4 nM.

For the molecule `COc1ccc(CSc2nc3c(C(N)=O)cccc3[nH]2)cc1` [Compound 43, 2-(4-Methoxy-benzylsulfanyl)-1H-benzimidazole-4-carboxylic Acid Amide], the Ki was 6.5 ± 1.5 nM.

For the molecule `COC(=O)Nc1ccc(S(=O)(=O)Cc2nc3c(C(N)=O)cccc3[nH]2)cc1` [Compound 37, [4-(4-Carbamoyl-1H-benzoimidazol-2-ylmethanesulfonyl)-phenyl]-carbamic Acid Methyl Ester], the Ki was found to be 28.5 ± 0.5 nM.

Turning to `NC(=O)c1cccc2[nH]c(CN3CCC(N)C3)nc12` (stereo not shown) [Compound 22, 2-(3-Amino-pyrrolidin-1-ylmethyl)-1H-benzimidazole-4-carboxylic Acid Amide], the Ki was found to be 17 nM.

On to `NC(=O)c1cccc2[nH]c(CS(=O)(=O)c3ccc(N4C(=O)CNC4=O)cc3)nc12` [Compound 51, 2-[4-(2,5-Dioxo-imidazolidin-1-yl)-benzenesulfonylmethyl]-1H-benzoimidazole-4-carboxylic Acid Amide], for which the Ki came out at 24 ± 3 nM.

In the case of `NC(=O)c1cccc2[nH]c(CSc3ccc(NC(=O)OCc4ccccc4)cc3)nc12` [Compound 25], the Ki amounted to 39 nM.

As for `NC(=O)c1cccc2[nH]c(CSc3nc4ccccc4s3)nc12` [Compound 2, 2-(Benzothiazol-2-ylsulfanylmethyl)-1H-benzimidazole-4 carboxylic Acid Amide], the Ki worked out at 12 nM.

`CSc1ccc(SCc2nc3c(C(N)=O)cccc3[nH]2)cc1` [Compound 14, 2-(4-Methylsulfanyl-phenylsulfanylmethyl)-1H-benzimidazole-4-carboxylic Acid Amide]: the Ki turned out to be 11 ± 2 nM.

As to `NC(=O)c1cccc2[nH]c(SCc3ccc([N+](=O)[O-])cc3)nc12` [Compound 44, 2-(4-Nitro-benzylsulfanyl)-1H-benzimidazole-4-carboxylic Acid Amide], the inhibition constant Ki is 4.7 ± 0.2 nM.

Regarding `NC(=O)c1cccc2c1nc1n2CCSC1` [Compound 47, 3,4-Dihydro-1H-2-thia-4a,9-diaza-fluorene-8-carboxylic Acid Amide], the Ki worked out at 93 ± 10 nM.

Take `NC(=O)c1cccc2[nH]c(SCc3ccccc3)nc12` [Compound 40, 2-Benzylsulfanyl-1H-benzimidazole-4-carboxylic Acid Amide]: the Ki was determined as 70 ± 15 nM.

On to `COc1ccc(SCc2nc3c(C(N)=O)cccc3[nH]2)cc1` [Compound 8, 2-(4-Methoxy-phenylsulfanylmethyl)-1H-benzimidazole-4-carboxylic Acid Amide], for which the Ki was 9 ± 1 nM.

For the molecule `NC(=O)c1cccc2[nH]c(S(=O)(=O)Cc3ccccc3)nc12` [Compound 41, 2-Phenylmethansulfonyl-1H-benzimidazole-4-carboxylic Acid Amide], the Ki was determined as 800 nM.

`NC(=O)c1cccc2[nH]c(CNC3CN4CCC3CC4)nc12` (stereo not shown) [Compound 21, 2-[(1-Aza-bicyclo[2.2.2]oct-3-ylamino)-methyl]-1H-benzimidazole-4-carboxylic Acid Amide]: the Ki was 9 ± 2 nM.

For `CCCCCCCS(=O)(=O)Cc1nc2c(C(N)=O)cccc2[nH]1` [Compound 31, 2-(Heptane-1-sulfonylmethyl)-1H-benzimidazole-4-carboxylic Acid Amide], the Ki was found to be 61 ± 10 nM.

Source of the values: US20040034078A1 (Agouron Pharmaceuticals, Inc., priority 2002, published 2004).
